Experimental data published in ChEMBL document CHEMBL1122862, “Synthesis and antibacterial activity of 2,2'-dithiobis(benzamide) derivatives against Mycobacterium species” (1985).
Converted amounts (≈) assume the structure as drawn.

Experiments:
Type in all cases: functional
[1] = system: Mycobacterium tuberculosis; assay: Antibacterial activity against Mycobacterium tuberculosis H37Rv.
[2] = system: Mycobacterium intracellulare; assay: Antibacterial activity against Mycobacterium intracellular.
Mycobacterium kansasii = assay: Antibacterial activity against Mycobacterium kansasii

| SMILES | MIC [1] [µg/mL] | MIC [2] [µg/mL] | MIC (Mycobacterium kansasii) [µg/mL] |
| --- | --- | --- | --- |
| CN[C@@H]1[C@H](O[C@H]2[C@H](O[C@H]3[C@H](O)[C@@H](O)[C@H](N=C(N)N)[C@@H](O)[C@@H]3N=C(N)N)O[C@@H](C)[C@]2(O)C=O)O[C@@H](CO)[C@H](O[C@@H]2O[C@H](CO)[C@@H](O)[C@H](O)[C@@H]2O)[C@H]1O | 0.78 (≈ 1.05 µM) | 12.5 (≈ 16.8 µM) | 3.13 (≈ 4.21 µM) |
| O=C(c1ccccc1SSc1ccccc1C(=O)N1CCN(C/C=C/c2ccccc2)CC1)N1CCN(C/C=C/c2ccccc2)CC1 | 100 (≈ 148 µM) | > 100 | > 100 |
| CCOC(=O)CNC(=O)c1ccccc1SSc1ccccc1C(=O)NCC(=O)OCC | 25 (≈ 52.5 µM) | 25 (≈ 52.5 µM) | 25 (≈ 52.5 µM) |
| O=C(NCC(O)c1ccccc1)c1ccccc1SSc1ccccc1C(=O)NCC(O)c1ccccc1 (stereo not given) | 100 (≈ 184 µM) | > 100 | 100 (≈ 184 µM) |
| CCCCc1ccc(NC(=O)c2ccccc2SSc2ccccc2C(=O)Nc2ccc(CCCC)cc2)cc1 | 0.78 (≈ 1.37 µM) | 12.5 (≈ 22 µM) | 12.5 (≈ 22 µM) |
| O=C(NCC(O)c1ccc(O)c(O)c1)c1ccccc1SSc1ccccc1C(=O)NCC(O)c1ccc(O)c(O)c1 (stereo not given) | 100 (≈ 164 µM) | > 100 | > 100 |
| O=C(NCCNCCO)c1ccccc1SSc1ccccc1C(=O)NCCNCCO | 25 (≈ 52.2 µM) | > 100 | > 100 |
| O=C(NCc1cccc2ccccc12)c1ccccc1SSc1ccccc1C(=O)NCc1cccc2ccccc12 | > 100 | > 100 | > 100 |
| O=C(Nc1cc2ccccc2cc1O)c1ccccc1SSc1ccccc1C(=O)Nc1cc2ccccc2cc1O | 12.5 (≈ 21.2 µM) | 50 (≈ 84.9 µM) | 25 (≈ 42.5 µM) |
| CCn1c2ccccc2c2cc(NC(=O)c3ccccc3SSc3ccccc3C(=O)Nc3ccc4c(c3)c3ccccc3n4CC)ccc21 | 3.13 (≈ 4.53 µM) | > 100 | 50 (≈ 72.4 µM) |
| CCCCCCCCCCCCCCCC(=O)OCCNC(=O)c1ccccc1SSc1ccccc1C(=O)NCCOC(=O)CCCCCCCCCCCCCCC | 100 (≈ 115 µM) | 100 (≈ 115 µM) | 100 (≈ 115 µM) |
| CN1CCCN(C(=O)c2ccccc2SSc2ccccc2C(=O)N2CCCN(C)CC2)CC1 | > 100 | > 100 | > 100 |
| O=C(c1ccccc1SSc1ccccc1C(=O)N1C(=O)c2ccccc2C1=O)N1C(=O)c2ccccc2C1=O | > 100 | > 100 | > 100 |
| CC(CCc1ccccc1)NC(=O)c1ccccc1SSc1ccccc1C(=O)NC(C)CCc1ccccc1 (stereo not given) | 100 (≈ 176 µM) | > 100 | > 100 |
| CCCCCCCCCCCC(=O)OCCCNC(=O)c1ccccc1SSc1ccccc1C(=O)NCCCOC(=O)CCCCCCCCCCC | 0.78 (≈ 0.993 µM) | > 100 | 12.5 (≈ 15.9 µM) |
| CCC(CO)NC(=O)c1ccccc1SSc1ccccc1C(=O)NC(CC)CO (stereo not given) | 12.5 (≈ 27.9 µM) | 25 (≈ 55.7 µM) | 25 (≈ 55.7 µM) |
| O=C(Nc1cccc([N+](=O)[O-])c1)c1ccccc1SSc1ccccc1C(=O)Nc1cccc([N+](=O)[O-])c1 | 100 (≈ 183 µM) | > 100 | > 100 |
| O=C(NCO)c1ccccc1SSc1ccccc1C(=O)NCO | 6.25 (≈ 17.1 µM) | 25 (≈ 68.6 µM) | 25 (≈ 68.6 µM) |
| O=C(c1ccccc1SSc1ccccc1C(=O)n1nnc2ccccc21)n1nnc2ccccc21 | > 100 | > 100 | > 100 |
| CCCCCCCCCCCC(=O)OC(C)CNC(=O)c1ccccc1SSc1ccccc1C(=O)NCC(C)OC(=O)CCCCCCCCCCC (stereo not given) | 3.13 (≈ 3.99 µM) | 100 (≈ 127 µM) | 50 (≈ 63.7 µM) |
| CCC(CO)(CO)NC(=O)c1ccccc1SSc1ccccc1C(=O)NC(CC)(CO)CO | 25 (≈ 49.1 µM) | 100 (≈ 197 µM) | 25 (≈ 49.1 µM) |
| CCOCCCNC(=O)c1ccccc1SSc1ccccc1C(=O)NCCCOCC | 1.56 (≈ 3.27 µM) | 12.5 (≈ 26.2 µM) | 12.5 (≈ 26.2 µM) |
| O=c1c2ccccc2sn1CCO | 12.5 (≈ 64 µM) | 12.5 (≈ 64 µM) | 25 (≈ 128 µM) |

| SMILES | MIC [1] [µg/mL] | MIC [2] [µg/mL] | MIC (Mycobacterium kansasii) [µg/mL] |
| --- | --- | --- | --- |
| CCCCN(CCCC)C(=O)c1ccccc1SSc1ccccc1C(=O)N(CCCC)CCCC | 6.25 (≈ 11.8 µM) | 25 (≈ 47.3 µM) | 25 (≈ 47.3 µM) |
| CCCCCCCCCCCCNC(=O)c1ccccc1SSc1ccccc1C(=O)NCCCCCCCCCCCC | 3.13 (≈ 4.88 µM) | 50 (≈ 78 µM) | 25 (≈ 39 µM) |
| O=C(O)Cc1ccc(NC(=O)c2ccccc2SSc2ccccc2C(=O)Nc2ccc(CC(=O)O)cc2)cc1 | 100 (≈ 175 µM) | 100 (≈ 175 µM) | 100 (≈ 175 µM) |
| O=C(NCc1ccco1)c1ccccc1SSc1ccccc1C(=O)NCc1ccco1 | 25 (≈ 53.8 µM) | 25 (≈ 53.8 µM) | 25 (≈ 53.8 µM) |
| O=C(Nc1cccc(Cl)c1)c1ccccc1SSc1ccccc1C(=O)Nc1cccc(Cl)c1 | 3.13 (≈ 5.96 µM) | 25 (≈ 47.6 µM) | 12.5 (≈ 23.8 µM) |
| CCCCC(CC)CNC(=O)c1ccccc1SSc1ccccc1C(=O)NCC(CC)CCCC (stereo not given) | 1.56 (≈ 2.95 µM) | 50 (≈ 94.5 µM) | 3.13 (≈ 5.92 µM) |
| CC(=O)OCCCNC(=O)c1ccccc1SSc1ccccc1C(=O)NCCCOC(C)=O | 12.5 (≈ 24.8 µM) | 25 (≈ 49.5 µM) | 25 (≈ 49.5 µM) |
| O=C(Nc1ccc2ccccc2c1)c1ccccc1SSc1ccccc1C(=O)Nc1ccc2ccccc2c1 | 1.56 (≈ 2.8 µM) | 6.25 (≈ 11.2 µM) | 6.25 (≈ 11.2 µM) |
| CCCCCCCCCCCCCCCCCCCC(=O)OCCCNC(=O)c1ccccc1SSc1ccccc1C(=O)NCCCOC(=O)CCCCCCCCCCCCCCCCCCC | > 100 | > 100 | > 100 |
| CC(O)Cn1sc2ccccc2c1=O (stereo not given) | 12.5 (≈ 59.7 µM) | 12.5 (≈ 59.7 µM) | 25 (≈ 119 µM) |
| O=C(Nc1ccccc1Cl)c1ccccc1SSc1ccccc1C(=O)Nc1ccccc1Cl | 25 (≈ 47.6 µM) | > 100 | 100 (≈ 190 µM) |
| CCNC(=O)OCCNC(=O)c1ccccc1SSc1ccccc1C(=O)NCCOC(=O)NCC | 25 (≈ 46.8 µM) | 25 (≈ 46.8 µM) | 25 (≈ 46.8 µM) |
| CCCCCCCCCCNC(=O)c1ccccc1SSc1ccccc1C(=O)NCCCCCCCCCC | 12.5 (≈ 21.4 µM) | 25 (≈ 42.7 µM) | 12.5 (≈ 21.4 µM) |
| CCCCCCC(=O)OCCCNC(=O)c1ccccc1SSc1ccccc1C(=O)NCCCOC(=O)CCCCCC | 0.78 (≈ 1.21 µM) | 12.5 (≈ 19.4 µM) | 0.39 (≈ 0.605 µM) |
| O=C(NCCO)c1ccccc1SSc1ccccc1C(=O)NCCO | 6.25 (≈ 15.9 µM) | 25 (≈ 63.7 µM) | 25 (≈ 63.7 µM) |
| O=C(Nc1ccc(Cl)c2ccccc12)c1ccccc1SSc1ccccc1C(=O)Nc1ccc(Cl)c2ccccc12 | 12.5 (≈ 20 µM) | > 100 | 50 (≈ 79.9 µM) |
| CCc1cc(CC)cc(NC(=O)c2ccccc2SSc2ccccc2C(=O)Nc2cc(CC)cc(CC)c2)c1 | > 100 | > 100 | > 100 |
| O=C(NCCCCO)c1ccccc1SSc1ccccc1C(=O)NCCCCO | 6.25 (≈ 13.9 µM) | 25 (≈ 55.7 µM) | 25 (≈ 55.7 µM) |
| CC(O)CNC(=O)c1ccccc1SSc1ccccc1C(=O)NCC(C)O (stereo not given) | 1.56 (≈ 3.71 µM) | 25 (≈ 59.4 µM) | 25 (≈ 59.4 µM) |
| CN1CCN(C(=O)c2ccccc2SSc2ccccc2C(=O)N2CCN(C)CC2)CC1.Cl.Cl | 100 | > 100 | > 100 |
| Cl.Cl.O=C(c1ccccc1SSc1ccccc1C(=O)N1CCN(C(c2ccccc2)c2ccccc2)CC1)N1CCN(C(c2ccccc2)c2ccccc2)CC1 | > 100 | > 100 | > 100 |
| Cl.Cl.O=C(c1ccccc1SSc1ccccc1C(=O)N1CCN(Cc2ccccc2)CC1)N1CCN(Cc2ccccc2)CC1 | 25 | > 100 | 50 |
